Measurements reported in PubChem BioAssay AID298 (DTP/NCI, 2004).
“And” between values parts separate entries of the source, which are not always exact repeats. Equal entries are not always repeated. Results filed as inconclusive are left out.

Test system: MX-1 breast xenograft, intrarenal, nude mice, tumor weight
Test: NCI In Vivo Anticancer Drug Screen. Data for tumor model Human Mammary Carcinoma MX-1 Xenograft (intrarenal inoculation) in NU/NU BALB/C (nude) mice
Settings: endpoint: mean tumor weight change, higher = larger tumour
Summary of the method: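 Compounds were given to mice carrying transplanted tumors, and tumor size or survival was measured. Each value is the treated-group measurement (T) divided by the vehicle-treated control-group measurement (C).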

[1] = dose: 25.0 mg/kg/injection, schedule: Q04DX003 (ip), vehicle: saline with Tween-80
[2] = dose: 50.0 mg/kg/injection, schedule: Q04DX003 (ip), vehicle: saline with Tween-80
[3] = dose: 100.0 mg/kg/injection, schedule: Q04DX003 (sc), vehicle: saline
[4] = dose: 200.0 mg/kg/injection, schedule: Q04DX003 (sc), vehicle: saline
[5] = dose: 400.0 mg/kg/injection, schedule: Q04DX003 (sc), vehicle: saline
[6] = dose: 150.0 mg/kg/injection, schedule: Q04DX003 (sc), vehicle: saline

CO[C@@]12[C@@H]3N[C@@H]3CN1C1=C(C(=O)C(NCCc3ccccn3)=C(C)C1=O)[C@@H]2COC(N)=O
T/C (dose: 6.25 mg/kg/injection, schedule: Q04DX003 (ip), vehicle: saline with Tween-80): -51 % of control
T/C (dose: 12.5 mg/kg/injection, schedule: Q04DX003 (ip), vehicle: saline with Tween-80): -84 % of control
T/C [1]: -92 % of control
T/C [2]: -42 % of control

O=C1C2C3C=CC(C2C(=O)N1CO)C1C2C(=O)N(CO)C(=O)C2C31 (stereo unspecified)
T/C (dose: 37.5 mg/kg/injection, schedule: Q04DX003 (ip), vehicle: water): 110 % of control
T/C (dose: 75.0 mg/kg/injection, schedule: Q04DX003 (ip), vehicle: water): 71 % of control

[N-]=[N+]=[N-]
T/C (dose: 1.5 mg/kg/injection, schedule: Q04DX003 (ip), vehicle: water): 66 % of control
T/C (dose: 6.0 mg/kg/injection, schedule: Q04DX003 (ip), vehicle: water): 66 % of control
T/C (dose: 12.0 mg/kg/injection, schedule: Q04DX003 (ip), vehicle: water): 64 % of control

Brc1c(NC2=NCCN2)ccc2nccnc12
T/C (dose: 50.0 mg/kg/injection, schedule: Q04DX003 (sc), vehicle: saline): 69 % of control
T/C [3]: 57 % of control
T/C [4]: 41 % of control
T/C [5]: 23 % of control

N=C(N)c1nn(C2OC(CO)C(O)C2O)c2nc[nH]c(=O)c12 (stereo unspecified)
T/C (dose: 12.5 mg/kg/injection, schedule: Q04DX003 (ip), vehicle: Klucel + Tween-80): 92 % of control
T/C (dose: 25.0 mg/kg/injection, schedule: Q04DX003 (ip), vehicle: Klucel + Tween-80): 42 % of control
T/C (dose: 25.0 mg/kg/injection, schedule: Q04DX003 (ip), vehicle: distilled water + Tween-80 + alcohol): 95 % of control
T/C (dose: 50.0 mg/kg/injection, schedule: Q04DX003 (ip), vehicle: distilled water + Tween-80 + alcohol): 83 % of control
T/C (dose: 75.0 mg/kg/injection, schedule: Q04DX003 (ip), vehicle: Klucel + Tween-80): 36 % of control
T/C (dose: 100.0 mg/kg/injection, schedule: Q04DX003 (ip), vehicle: distilled water + Tween-80 + alcohol): 4 % of control
T/C (dose: 125.0 mg/kg/injection, schedule: Q04DX003 (ip), vehicle: Klucel + Tween-80): 9 % of control

CC(O)CCC(=O)c1ccoc1 (stereo unspecified)
T/C (dose: 3.75 mg/kg/injection, schedule: Q01DX010 (ip), vehicle: saline): 191 % of control
T/C (dose: 7.5 mg/kg/injection, schedule: Q01DX010 (ip), vehicle: saline): 95 % of control and 120 % of control
T/C (dose: 60.0 mg/kg/injection, schedule: Q01DX010 (ip), vehicle: saline): 49 % of control

CN(C)N=Nc1ccc(C(=O)O)cc1
T/C (dose: 100.0 mg/kg/injection, schedule: Q04DX003 (ip), vehicle: saline): 30 % of control
T/C (dose: 200.0 mg/kg/injection, schedule: Q04DX003 (ip), vehicle: saline): 2 % of control
T/C (dose: 400.0 mg/kg/injection, schedule: Q04DX003 (ip), vehicle: saline): -60 % of control

NNC(=O)c1ccncc1
T/C [6]: 123 % of control

CO[C@H]1C[C@@H]2CC[C@@H](C)[C@@](O)(O2)C(=O)C(=O)N2CCCC[C@H]2C(=O)O[C@H]([C@H](C)C[C@@H]2CC[C@@H](O)[C@H](OC)C2)CC(=O)[C@H](C)C=C(C)[C@@H](O)[C@@H](OC)C(=O)[C@H](C)C[C@H](C)/C=C/C=C/C=C1C
T/C (dose: 100.0 mg/kg/injection, schedule: Q01DX010 (sc), vehicle: saline with Tween-80): 30 % of control
T/C (dose: 200.0 mg/kg/injection, schedule: Q01DX010 (sc), vehicle: saline with Tween-80): 22 % of control
T/C (dose: 400.0 mg/kg/injection, schedule: Q01DX010 (sc), vehicle: saline with Tween-80): 54 % of control
T/C (dose: 800.0 mg/kg/injection, schedule: Q01DX010 (sc), vehicle: saline with Tween-80): 54 % of control

Cc1ccc(C(=O)NC2C(=O)NC(C(C)C)C(=O)N3CCCC3C(=O)N(C)CC(=O)N(C)C(C(C)C)C(=O)OC2C)c2c1Oc1c(c(C(=O)NC3C(=O)NC(C(C)C)C(=O)N4CCCC4C(=O)N(C)CC(=O)N(C)C(C(C)C)C(=O)OC3C)c3nc(-c4ccccc4)c(=O)oc3c1C)N2 (stereo unspecified)
T/C (dose: 1.0 mg/kg/injection, schedule: Q04DX003 (ip), vehicle: water): 16 % of control and 26 % of control
T/C (dose: 2.0 mg/kg/injection, schedule: Q04DX003 (ip), vehicle: water): 5 % of control

CCCCCCCC(=O)OCC(=O)[C@]1(O)Cc2c(O)c3c(c(O)c2[C@@H](OC2CC(N)C(O)C(C)O2)C1)C(=O)c1c(OC)cccc1C3=O (stereo partly specified)
T/C (dose: 2.0 mg/kg/injection, schedule: Q01DX010 (ip), vehicle: suspension in saline): 4 % of control
T/C (dose: 2.0 mg/kg/injection, schedule: Q01DX010 (sc), vehicle: saline): 121 % of control
T/C (dose: 2.0 mg/kg/injection, schedule: Q04DX003 (ip), vehicle: saline): 53 % of control
T/C (dose: 4.0 mg/kg/injection, schedule: Q01DX010 (ip), vehicle: suspension in saline): 5 % of control
T/C (dose: 4.0 mg/kg/injection, schedule: Q01DX010 (sc), vehicle: saline): 20 % of control
T/C (dose: 4.0 mg/kg/injection, schedule: Q04DX003 (ip), vehicle: saline): 27 % of control
T/C (dose: 8.0 mg/kg/injection, schedule: Q01DX010 (sc), vehicle: saline): 2 % of control
T/C (dose: 8.0 mg/kg/injection, schedule: Q04DX003 (ip), vehicle: saline): 5 % of control

O=C(CCCN1CCC(C(O)c2ccc(F)cc2)CC1)c1ccc(F)cc1 (stereo unspecified)
T/C [1]: 90 % of control
T/C [2]: 83 % of control

Nc1ncn(C2OC(CO)C(O)C2O)c(=O)n1 (stereo unspecified)
T/C (dose: 0.19 mg/kg/injection, schedule: Q01DX010 (ip), vehicle: saline): 307 % of control
T/C (dose: 0.19 mg/kg/injection, schedule: Q01DX010 (sc), vehicle: saline): 83 % of control
T/C (dose: 0.38 mg/kg/injection, schedule: Q01DX010 (ip), vehicle: saline): 261 % of control
T/C (dose: 0.63 mg/kg/injection, schedule: Q04DX003 (ip), vehicle: saline): 73 % of control
T/C (dose: 0.63 mg/kg/injection, schedule: Q04DX003 (sc), vehicle: saline): 22 % of control
T/C (dose: 0.75 mg/kg/injection, schedule: Q01DX010 (ip), vehicle: saline): 86 % of control
T/C (dose: 0.75 mg/kg/injection, schedule: Q01DX010 (sc), vehicle: saline): 69 % of control
T/C (dose: 1.25 mg/kg/injection, schedule: Q04DX003 (ip), vehicle: saline): 91 % of control
T/C (dose: 1.25 mg/kg/injection, schedule: Q04DX003 (sc), vehicle: saline): 40 % of control
T/C (dose: 1.5 mg/kg/injection, schedule: Q01DX010 (ip), vehicle: saline): 249 % of control
T/C (dose: 2.5 mg/kg/injection, schedule: Q04DX003 (ip), vehicle: saline): 94 % of control
T/C (dose: 2.5 mg/kg/injection, schedule: Q04DX003 (sc), vehicle: saline): 36 % of control
T/C (dose: 5.0 mg/kg/injection, schedule: Q04DX003 (ip), vehicle: saline): 31 % of control
T/C (dose: 10.0 mg/kg/injection, schedule: Q04DX003 (sc), vehicle: saline): 23 % of control
T/C [3]: 15 % of control
T/C [6]: 21 % of control
T/C [4]: 15 % of control
T/C (dose: 300.0 mg/kg/injection, schedule: Q04DX003 (sc), vehicle: saline): 8 % of control
T/C [5]: 4 % of control
T/C (dose: 600.0 mg/kg/injection, schedule: Q04DX003 (sc), vehicle: saline): -45 % of control
T/C (dose: 800.0 mg/kg/injection, schedule: Q04DX003 (sc), vehicle: saline): -50 % of control
T/C (dose: 1200.0 mg/kg/injection, schedule: Q04DX003 (sc), vehicle: saline): -43 % of control

COc1cc(C(C)(C)C)cc(OC)c1C(O)(c1c(OC)cc(C(C)(C)C)cc1OC)c1c(OC)cc(C(C)(C)C)cc1OC
T/C (dose: 200.0 mg/kg/injection, schedule: Q04DX003 (sc), vehicle: saline with Tween-80): 93 % of control
T/C (dose: 400.0 mg/kg/injection, schedule: Q04DX003 (sc), vehicle: saline with Tween-80): 88 % of control
T/C (dose: 800.0 mg/kg/injection, schedule: Q04DX003 (sc), vehicle: saline with Tween-80): 96 % of control
T/C (dose: 1600.0 mg/kg/injection, schedule: Q04DX003 (sc), vehicle: saline with Tween-80): 100 % of control

c1ccc2[nH]c(CN(CCN(Cc3nc4ccccc4[nH]3)Cc3nc4ccccc4[nH]3)Cc3nc4ccccc4[nH]3)nc2c1
T/C (dose: 6.25 mg/kg/injection, schedule: Q04DX003 (ip), vehicle: DMSO): 59 % of control and 68 % of control
T/C (dose: 50.0 mg/kg/injection, schedule: Q04DX003 (ip), vehicle: DMSO): 62 % of control

O=NN(CCCl)C(=O)NCCO
T/C (dose: 3.13 mg/kg/injection, schedule: Q04DX003 (sc), vehicle: water): 82 % of control
T/C (dose: 6.25 mg/kg/injection, schedule: Q04DX003 (sc), vehicle: water): 38 % of control
T/C (dose: 12.5 mg/kg/injection, schedule: Q04DX003 (sc), vehicle: water): 7 % of control

CC1(C)COCN1COCCOCN1COCC1(C)C
T/C [4]: 77 % of control
T/C [5]: 83 % of control
